Measured values published in ChEMBL document CHEMBL4342407, “Thieno[2,3-d]pyrimidine as a promising scaffold in medicinal chemistry: Recent advances” (Bioorg Med Chem, 2019).
pIC50, pKi: −log10 of the molar value.

What was measured:
HCT-116 [1] = assay: Antiproliferative activity against human HCT116 after 48 hrs by MTT assay; assay type: functional; conditions: HCT-116, 48 h
HCT-15 = assay: Antiproliferative activity against human HCT15 after 48 hrs by MTT assay; assay type: functional; conditions: HCT-15, 48 h
HT-29 = assay: Antiproliferative activity against human HT-29 after 48 hrs by MTT assay; assay type: functional; conditions: HT-29, 48 h
BT-549 = assay: Antiproliferative activity against human BT549 after 48 hrs by MTT assay; assay type: functional; conditions: BT-549, 48 h
MDA-MB-453 = assay: Antiproliferative activity against human MDA-MB-453 after 48 hrs by MTT assay; assay type: functional; conditions: MDA-MB-453, 48 h
MCF7 = assay: Antiproliferative activity against human MCF7 after 48 hrs by MTT assay; assay type: functional; conditions: MCF7, 48 h
A549 [2] = assay: Antiproliferative activity against human A549 after 48 hrs by MTT assay; assay type: functional; conditions: A549, 48 h
DU-145 = assay: Antiproliferative activity against human DU145 after 48 hrs by MTT assay; assay type: functional; conditions: DU-145, 48 h
Rattus norvegicus [3] = assay: Antiinflammatory activity in gamma irradiated rat assessed as reduction in serum TNFalpha level at 150 mg/kg, ip administered once daily for 7 consecutive days by ELISA (reference value: 105.07 +/- 3.925 pg/ml); assay type: functional
Rattus norvegicus [4] = assay: Antiinflammatory activity in gamma irradiated rat assessed as reduction in serum IL-6 level at 150 mg/kg, ip administered once daily for 7 consecutive days by ELISA (reference value: 103.87 +/- 3.273 pg/ml); assay type: functional
Rattus norvegicus [5] = assay: Antiinflammatory activity in gamma irradiated rat assessed as reduction in COX-2 level in liver tissue homogenates at 150 mg/kg, ip administered once daily for 7 consecutive days by ELISA (reference value: 89.50 +/- 2.617 ng/ml); assay type: functional
Rattus norvegicus [6] = assay: Antiinflammatory activity in gamma irradiated rat assessed as reduction in NFkappaB level in liver tissue homogenates at 150 mg/kg, ip administered once daily for 7 consecutive days by ELISA (reference value: 258.33 +/- 4.216 pg/ml); assay type: functional
[7] = Inhibition of Influenza A virus H3N2 Neuraminidase
Rattus norvegicus [8] = assay: Antiinflammatory activity in Sprague-Dawley rat assessed as inhibition of carrageenan-induced edema at 15 mg/kg, po pretreated for 1 hr followed by carrageenan challenge and measured after 4 hrs by mercury plethysmometer relative to control; assay type: functional
Mus musculus = assay: Analgesic activity in Swiss albino mouse assessed as protection against acetic acid-induced writhing at 15 mg/kg, po pretreated for 30 mins followed by acetic acid challenge and measured after 20 mins relative to control; assay type: functional
[9] = Ulcerogenic activity in Sprague-Dawley rat assessed as ulcer index at 20 mg/kg, ip pretreated followed by pylorus ligation and measured at 4 hrs post ligation; assay type: toxicity, organism-based; conditions: in vivo
HCT-116 [10] = assay: Antiproliferative activity against human HCT116 after 18 hrs by MTT assay; assay type: functional, cell-based; conditions: HCT-116, 18 h
[11] = biological target: Cyclin-dependent kinase 4/cyclin D1 (Homo sapiens, UniProt P11802); assay: Inhibition of CDK4/cyclin D1 (unknown origin) expressed in baculovirus infected Sf9 insect cells using GST-Rb as substrate in presence of [33P] ATP incubated for 30 mins
[12] = biological target: Cyclin-dependent kinase 2/cyclin E1 (Homo sapiens, UniProt P24941); assay: Inhibition of CDK2/cyclin E (unknown origin) expressed in baculovirus infected Sf9 insect cells using GST-Rb as substrate in presence of [33P] ATP incubated for 30 mins
Homo sapiens [13] = organism: Homo sapiens; assay: Selectivity ratio of IC50 for CDK2/cyclin E (unknown origin) expressed in baculovirus infected Sf9 insect cells to IC50 for CDK4/cyclin D1 (unknown origin) expressed in baculovirus infected Sf9 insect cells
Hepatovirus A = assay: Antiviral activity against Hepatitis A virus infected in HepG2 cells assessed as virus inhibition at 40 ug/L incubated overnight with virus followed by inoculation and measured after 1 hr by crystal violet staining based plaque reduction assay; assay type: functional
A549 [14] = assay: Antiproliferative activity against human A549 after 18 hrs by MTT assay; assay type: functional, cell-based; conditions: A549, 18 h
Human alphaherpesvirus 1 [15] = assay: Antiviral activity against Herpes simplex virus 1 at 20 ug/10^5; assay type: functional
Human alphaherpesvirus 1 [16] = assay: Antiviral activity against Herpes simplex virus 1 at 50 ug/10^5; assay type: functional
Bacillus subtilis = assay: Antibacterial activity against Bacillus subtilis assessed as zone inhibition at 100 ug/ml; assay type: functional; conditions: read-out: IZ
Staphylococcus aureus = assay: Antibacterial activity against Staphylococcus aureus assessed as zone inhibition at 100 ug/ml; assay type: functional; conditions: read-out: IZ
Klebsiella pneumoniae = assay: Antibacterial activity against Klebsiella pneumoniae assessed as zone inhibition at 100 ug/ml; assay type: functional; conditions: read-out: IZ
Escherichia coli = assay: Antibacterial activity against Escherichia coli assessed as zone inhibition at 100 ug/ml; assay type: functional; conditions: read-out: IZ
Adenosine receptor A1 = biological target: T1, Adenosine receptor A1 (Homo sapiens, UniProt P30542); assay: Displacement of [3H]-CCPA binding from human A1 receptor expressed in CHO cells by radioligand competitive binding assay; assay type: cell-based
T1 sequence (P30542 whole entry): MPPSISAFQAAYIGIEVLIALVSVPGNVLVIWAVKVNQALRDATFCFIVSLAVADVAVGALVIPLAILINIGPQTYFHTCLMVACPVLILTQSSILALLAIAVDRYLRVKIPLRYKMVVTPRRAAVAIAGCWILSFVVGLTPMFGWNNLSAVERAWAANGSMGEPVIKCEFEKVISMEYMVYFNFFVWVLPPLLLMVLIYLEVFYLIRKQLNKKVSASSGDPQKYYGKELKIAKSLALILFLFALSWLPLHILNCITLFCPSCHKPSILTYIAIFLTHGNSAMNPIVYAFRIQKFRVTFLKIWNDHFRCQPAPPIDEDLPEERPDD

Adenosine receptor A2a = Adenosine receptor A2a (Homo sapiens, UniProt P29274); assay: Displacement of [3H]-NECA from human A2A receptor expressed in CHO cells by radioligand competitive binding assay; assay type: cell-based
Adenosine receptor A3 = biological target: T2, Adenosine receptor A3 (Homo sapiens, UniProt P0DMS8); assay: Displacement of [3H]-HEMADO from human A3 receptor expressed in CHO cells by radioligand competitive binding assay; assay type: cell-based
T2 sequence (P0DMS8 whole entry): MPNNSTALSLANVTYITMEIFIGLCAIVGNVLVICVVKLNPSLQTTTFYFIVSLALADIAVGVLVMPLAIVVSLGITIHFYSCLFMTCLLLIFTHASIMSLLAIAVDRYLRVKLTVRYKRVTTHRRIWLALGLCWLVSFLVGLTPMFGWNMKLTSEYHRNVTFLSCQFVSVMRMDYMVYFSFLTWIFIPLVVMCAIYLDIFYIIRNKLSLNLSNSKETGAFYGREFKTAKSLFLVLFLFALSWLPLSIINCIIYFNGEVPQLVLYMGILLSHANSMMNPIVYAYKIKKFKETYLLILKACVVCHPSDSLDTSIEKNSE

Homo sapiens [17] = organism: Homo sapiens; assay: Selectivity ratio of Ki for human A1 receptor expressed in CHO cells to Ki for human A2A receptor expressed in CHO cells; assay type: cell-based
Homo sapiens [18] = organism: Homo sapiens; assay: Selectivity ratio of Ki for human A1 receptor expressed in CHO cells to Ki for human A3 receptor expressed in CHO cells; assay type: cell-based
Homo sapiens [19] = organism: Homo sapiens; assay: Selectivity ratio of Ki for human A2A receptor expressed in CHO cells to Ki for human A3 receptor expressed in CHO cells; assay type: cell-based

Sequence of Cyclin-dependent kinase 4/cyclin D1 (P11802 whole entry): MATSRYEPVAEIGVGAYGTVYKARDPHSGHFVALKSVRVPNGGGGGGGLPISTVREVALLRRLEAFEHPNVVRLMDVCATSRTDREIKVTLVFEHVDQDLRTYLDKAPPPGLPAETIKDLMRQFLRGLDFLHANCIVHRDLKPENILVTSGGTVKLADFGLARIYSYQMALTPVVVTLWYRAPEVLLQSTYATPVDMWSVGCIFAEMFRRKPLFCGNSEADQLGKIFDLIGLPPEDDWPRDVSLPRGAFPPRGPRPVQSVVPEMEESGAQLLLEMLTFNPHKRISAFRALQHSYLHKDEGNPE
Sequence of Cyclin-dependent kinase 4/cyclin D1 (P24385 whole entry, further chain): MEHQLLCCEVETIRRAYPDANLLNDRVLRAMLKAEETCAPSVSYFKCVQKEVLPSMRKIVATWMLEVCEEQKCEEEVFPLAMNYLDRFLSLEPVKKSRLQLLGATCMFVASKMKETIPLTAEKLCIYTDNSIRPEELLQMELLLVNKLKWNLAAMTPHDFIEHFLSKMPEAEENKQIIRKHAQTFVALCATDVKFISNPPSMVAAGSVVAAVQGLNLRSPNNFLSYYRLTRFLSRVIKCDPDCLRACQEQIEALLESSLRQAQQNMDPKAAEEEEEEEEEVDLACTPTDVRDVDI
Sequence of Adenosine receptor A2a (P29274 whole entry): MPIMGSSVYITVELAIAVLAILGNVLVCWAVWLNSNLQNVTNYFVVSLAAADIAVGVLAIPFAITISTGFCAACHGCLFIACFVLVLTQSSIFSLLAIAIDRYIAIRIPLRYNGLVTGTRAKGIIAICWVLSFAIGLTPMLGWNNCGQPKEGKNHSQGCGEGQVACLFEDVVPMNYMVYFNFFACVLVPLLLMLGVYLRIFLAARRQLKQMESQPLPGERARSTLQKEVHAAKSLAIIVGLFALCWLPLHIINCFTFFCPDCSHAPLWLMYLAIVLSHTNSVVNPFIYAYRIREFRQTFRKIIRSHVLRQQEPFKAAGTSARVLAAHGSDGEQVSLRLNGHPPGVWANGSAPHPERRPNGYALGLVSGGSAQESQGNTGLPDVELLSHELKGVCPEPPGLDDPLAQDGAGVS

SMILES: Cc1ccc([N+](=O)[O-])c(C(=O)Nc2cccc(Nc3ncnc4sccc34)c2)c1
- GI50 (HCT-116 [1]): 3.5 µM
- GI50 (HCT-15): 3.6 µM
- GI50 (HT-29): > 10 µM
- GI50 (BT-549): > 10 µM
- GI50 (MDA-MB-453): 8.2 µM
- GI50 (MCF7): 3.3 µM
- GI50 (A549 [2]): 8.6 µM
- GI50 (DU-145): 7.5 µM

SMILES: CCOC(=O)c1sc2ncnc(NCC(=O)O)c2c1C
- Serum TNFalpha level (Rattus norvegicus [3]): 48.32 pg/mL
- Serum IL-6 level (Rattus norvegicus [4]): 46.53 pg/mL
- COX-2 level in liver homogenate (Rattus norvegicus [5]): 31.17 ng/mL
- NFkappaB level in liver tissue (Rattus norvegicus [6]): 89.83 pg/mL

SMILES: O=CC1CN(c2nc(-c3c[nH]c4ccccc34)nc3sc4c(c23)CCCC4)N=C1c1ccccc1 (stereo not drawn)
- pIC50 [7]: 7.05

SMILES: CC(=O)Cc1c(C(C)C)sc2nc(S)[nH]c(=S)c12
- inhibition in vivo at 15 mg/kg (Rattus norvegicus [8]): 71.6%
- Activity (Mus musculus): 60%
- UI [9]: 1.1

SMILES: CCc1cc2c(OCc3cc(-c4ccc(OC)cc4)no3)ncnc2s1
- pIC50 (HCT-116 [10]): 3.95

SMILES: CC(N)c1csc(/C=N/Nc2ncnc3sc(C(C)(C)CF)cc23)n1 (stereo not drawn)
- pIC50 [11]: 7.34
- pIC50 [12]: 6.17
- Ratio IC50 (Homo sapiens [13]): 14.7

SMILES: CC(=O)OC[C@H]1O[C@@H](Sc2nc3sc4c(c3c(=O)n2Cc2ccccc2)CCCCC4)[C@H](OC(C)=O)[C@@H](OC(C)=O)[C@@H]1OC(C)=O
- inhibition (INH) (Hepatovirus A): 55%

SMILES: CCc1cc2c(OCc3cc(-c4ccc(Cl)cc4)no3)ncnc2s1
- pIC50 (A549 [14]): 4.34
- pIC50 (HCT-116 [10]): 4.48

SMILES: Nc1nc2c(ncn2COCCO)c(=O)[nH]1 [ACYCLOVIR]
- Activity (Human alphaherpesvirus 1 [15]): 100%

SMILES: OCCSc1ncnc2sc3c(c12)-c1ccccc1CC3
- Activity (Human alphaherpesvirus 1 [15]): 5%
- Activity (Human alphaherpesvirus 1 [16]): 30%

SMILES: CC(=O)OC[C@H]1O[C@@H](Sc2nc3sc4c(c3c(=O)n2CCO)CCCCC4)[C@H](OC(C)=O)[C@@H](OC(C)=O)[C@@H]1OC(C)=O
- inhibition (INH) (Hepatovirus A): 65%

SMILES: c1csc(C2=NOC(c3cc4cncnc4s3)C2)c1 (stereo not drawn)
- zone of inhibition at 100 µg/mL (Bacillus subtilis): 11.5 mm
- zone of inhibition at 100 µg/mL (Staphylococcus aureus): 12.5 mm
- zone of inhibition at 100 µg/mL (Klebsiella pneumoniae): 14.5 mm
- zone of inhibition at 100 µg/mL (Escherichia coli): 15.5 mm

SMILES: CCC(C)c1cc2c(N/N=C/c3nc(CNC)cs3)ncnc2s1 (stereo not drawn)
- pIC50 [11]: 7.54
- pIC50 [12]: 6.36
- Ratio IC50 (Homo sapiens [13]): 15.2

SMILES: CC(=O)OC[C@H]1O[C@@H](Sc2nc3sc4c(c3c(=O)n2-c2ccccc2)CCCCC4)[C@H](OC(C)=O)[C@@H](OC(C)=O)[C@@H]1OC(C)=O
- inhibition (INH) (Hepatovirus A): 50%

SMILES: c1cnc(C2=NOC(c3cc4cncnc4s3)C2)cn1 (stereo not drawn)
- zone of inhibition at 100 µg/mL (Bacillus subtilis): 11 mm
- zone of inhibition at 100 µg/mL (Staphylococcus aureus): 11.5 mm
- zone of inhibition at 100 µg/mL (Klebsiella pneumoniae): 12.5 mm
- zone of inhibition at 100 µg/mL (Escherichia coli): 13 mm

SMILES: Cc1sc2nc(N)nc(-n3cncn3)c2c1C
- pKi (Adenosine receptor A1): 4.39
- pKi (Adenosine receptor A2a): 5.24
- pKi (Adenosine receptor A3): < 4.52
- Ratio Ki (Homo sapiens [17]): 7.2
- Ratio Ki (Homo sapiens [18]): > 1.4
- Ratio Ki (Homo sapiens [19]): > 0.19

SMILES: O=C1CCC(=O)N1Nc1nc(-c2c[nH]c3ccccc23)nc2sc3c(c12)CCCC3
- pIC50 [7]: 7.68

SMILES: CCOC(=O)c1sc2ncnc(Cl)c2c1C
- Serum TNFalpha level (Rattus norvegicus [3]): 41.53 pg/mL
- Serum IL-6 level (Rattus norvegicus [4]): 50.1 pg/mL
- COX-2 level in liver homogenate (Rattus norvegicus [5]): 36.33 ng/mL
- NFkappaB level in liver tissue (Rattus norvegicus [6]): 138.17 pg/mL

SMILES: CNCc1csc(/C=N/Nc2ncnc3sc(C(C)C(C)C)cc23)n1 (stereo not drawn)
- pIC50 [11]: 7.66
- pIC50 [12]: 6.06
- Ratio IC50 (Homo sapiens [13]): 40
